Laboratory results from patent US6602881B2, “Anti-inflammatory uses of manzamines” (priority 1999, dated 2003).

Key:
Type in all cases: cell-based
[1] = system: LPS activated BMΦ (rat microglia); assay: Assay for BMΦ O2− generation (SOD-inhibitable reduction of ferricytochrome C), PMA-stimulated, LPS-activated BMΦ; conditions: PMA (1 μM)-stimulated O2− release from LPS (0.3 ng/ml, 17 h)-activated rat BMΦ, manzamine 20 min preincubation + 70 min
Experimental: (§1) Isolation and culture of rat BMΦ. Briefly to prepare primary BMΦ cultures, cerebral cortices from 1-2-day-old Sprague-Dawley rats (Harlan, Indianapolis, Ind.) were placed in cold DMEM+10% heat-inactivated FBS+120 U/ml P and 12 μg/ml S, meninges carefully removed, brain tissue minced and dissociated with trypsin-EDTA at 37° C. for 3-5 minutes. The mixed glial cell suspension was plated in either 75 or 162 cm^2 culture flasks with DMEM containing 10% heat-inactivated FBS+120 U/ml P and 12 μg/ml S and grown in a humidified 5% CO2 incubator at 37° C. On day 7 of culture, flasks were shaken (90 rpm, 20 min, 37° C.) and media exchanged. On day 14 and every 3-4 days thereafter, BMΦ were detached using an orbital shaker (200 rpm, 2 hours, 37° C., 5% CO2), then centrifuged (450×g, 25 min, 4° C.). The pellet containing BMΦ was resuspended gently with cold DMEM, cell number and viability assessed by trypan blue exclusion. Purified BMΦ obtained by our method averaged>than 95% viability. Microglia were characterized as previously described (Mayer et al., 1999, supra).
Assay for BMΦ O2^− generation. BMΦ O2^− generation was determined by the superoxide dismutase(SOD)-inhibitable reduction of ferricytochrome C(FCC) (Mayer et al., 1999, supra). Briefly, spontaneous O2^− release from unstimulated BMΦ was measured in the presence of FCC (50 μM) and HBSS with or without SOD (700 units). To determine PMA-stimulated O2^− release, BMΦ containing wells received FCC, HBSS and PMA [1 μM] with or without SOD which inhibited>95% of FCC reduction. All experimental treatments were run in triplicate and in a final volume of 1 ml. Changes in absorbance of BMΦ supernatants were measured at 550 nm using a Beckman DU-650 Spectrophotometer. Differences in the amount of reduced FCC in the presence or absence of SOD were used to determine BMΦ O2^− generation by employing the molecular extinction coefficient of 21.0×10^3 M^−1 cm^−1.
(§2) To establish the effect of Manzamine A, B, C, D, E and F on BMΦ O2^−, TXB2, and LDH generation the following procedure was used:
(§3) (1) 2-5×10^5 BMΦ were seeded into each well of 24-well flat-bottom culture clusters.
(§4) (2) 1 ml of DMEM+10% heat-inactivated FBS+120 U/ml P and 12 μg/ml S were added.
(§5) (3) BMΦ were allowed to attach for 2 hours, at 37° C., 5% CO2, and monolayers then washed 3 times with 1 ml warm (37° C.) DMEM+10% heat-inactivated FBS+120 U/ml P and 12 μg/ml S were added.
(§6) (4) 1 ml of DMEM+10% heat-inactivated FBS+120 U/ml P and 12 μg/ml S were added.
(§7) (5) Then, LPS (0.3 ng/ml final concentration) was added to each well.
(§8) (6) BMΦ were then incubated for 17 hours in a humidified 5% CO2 incubator at 37° C.
(§9) (7) Thereafter, the media was removed from each tissue culture well and discarded.
(§10) (8) BMΦ monolayers were washed 3 times with 1 ml warm (37° C.) HBSS.
(§11) To study the effect of Manzamines A, B, C, D, E and F on PMA-stimulated release of O2^− and TXB2 from BMΦ activated with LPS as described in (A) we proceeded as follows.
(§12) (1) Add HBSS, Manzamines A, or B, or C, or D, or E, or F, DMSO and Triton X-100 1% to the tissue culture wells containing LPS-activated BMΦ, as shown in Table 1.
(§13) (2) Incubate the tissue culture plates for 20 minutes in a humidified 5% CO2 incubator at 37° C.
(§14) (3) Remove the tissue culture plates from the incubator and return to laminar flow hood.
(§15) (4) Incubate tissue culture plates for an additional 70 minutes in CO2 incubator at 37° C.
(5) When incubation is complete, aspirate BMΦ supernates from each well (1 ml), and place in a 1.5 ml microcuvette. Proceed to reach absorbance as indicated above in Assay for BMΦ O2^− generation.

[2] = system: LPS activated BMΦ (rat microglia); assay: Assay for BMΦ thromboxane B2 (TXB2) generation (immunoassay), PMA-stimulated, LPS-activated BMΦ; conditions: PMA (1 μM)-stimulated TXB2 release from LPS (0.3 ng/ml, 17 h)-activated rat BMΦ, manzamine 20 min preincubation + 70 min
Experimental: as §1
Assay for BMΦ thromboxane B2 (TXB2) generation. Following stimulation with PMA, TXB2 generation in the BMΦ culture supernatants was measured using immunoassays (Cayman Chemical, Ann Arbor, Mich.) as indicated by the manufacturer's protocol (Mayer, et al., 1999, supra).
as §2, §3, §4, §5, §6, §7, §8, §9, §10, §11, §12, §13, §14, §15
(§16) (6) Once (5) is completed use the same BMΦ supernates to determine both LDH and TXB2 as described above in Assay for BMΦ TXB2 generation and LDH assay.

[3] = system: LPS activated BMΦ (rat microglia); assay: LDH assay (lactate dehydrogenase release, BMΦ viability); conditions: LDH release (toxicity) from LPS-activated rat BMΦ, same supernates
Experimental: as §1
LDH assay. To assess BMΦ viability following incubation with vehicle (DMSO) or the manzamines, lactate dehydrogenase (LDH) release was determined spectrophotometrically as previously described (Mayer et al., 1999, supra).
as §2, §3, §4, §5, §6, §7, §8, §9, §10, §11, §12, §13, §14, §15, §16

Structure (SMILES): O=C1CCCN2[C@@H](CC1)C[C@]13CN4CCCC/C=C\CC[C@](O)(C=C(c5nccc6c5[nH]c5c(O)cccc56)C1CC4)[C@H]23 (some centres unmarked) [Manzamine F, manzamine F]
- IC50 ([1]; Microglia): > 10 µM
- IC50 ([2]; Microglia): > 10 µM
- IC50 ([3]; Microglia): > 10 µM

Structure (SMILES): O[C@]12C=C(c3nccc4c3[nH]c3ccccc34)[C@@H]3CCN(CCCC/C=C\CC1)C[C@@]31C[C@@H]3/C=C\CCCCN3[C@H]12 [Manzamine A, manzamine A]
- IC50 [1]: 0.1 µM
- IC50 [2]: < 0.1 µM
- IC50 [3]: > 30 µM

Structure (SMILES): C1=C\CCCCN(CCc2nccc3c2[nH]c2ccccc23)CCCC/1 [Manzamine C, manzamine C]
- IC50 ([1]; Microglia): ~5 µM
- IC50 ([2]; Microglia): ~5 µM
- IC50 ([3]; Microglia): ~5 µM

Structure (SMILES): O[C@]12C=C(C3NCCc4c3[nH]c3ccccc43)[C@@H]3CCN(CCCC/C=C\CC1)C[C@@]31CC3/C=C\CCCCN3[C@H]12 (some centres unmarked) [Manzamine D, manzamine D]
- IC50 ([1]; Microglia): ~0.5 µM
- IC50 ([2]; Microglia): ~0.3 µM
- IC50 ([3]; Microglia): ~0.5 µM

Structure (SMILES): C1=C\CC[C@]23CN4CCCC/C=C\CC[C@@]5(OC5[C@@H](c5nccc6c5[nH]c5ccccc56)[C@@H]2CC4)[C@@H]3NCCCC/1 (some centres unmarked) [Manzamine B, manzamine B]
- IC50 ([1]; Microglia): ~5 µM
- IC50 ([2]; Microglia): ~3 µM
- IC50 ([3]; Microglia): ~3 µM

Structure (SMILES): O=C1CCCN2C(CC1)C[C@]13CN4CCCC/C=C\CC[C@](O)(C=C(c5nccc6c5[nH]c5ccccc56)[C@@H]1CC4)[C@H]23 (some centres unmarked) [Manzamine E, manzamine E]
- IC50 ([1]; Microglia): > 10 µM
- IC50 ([3]; Microglia): > 10 µM
